# Measured values taken from publication PMC8637440, “Structural Modifications Yield Novel Insights Into the Intriguing Pharmacodynamic Potential of Anti-inflammatory Nitro-Fatty Acids” (Frontiers in Pharmacology, 2021).
# Structures can show the parent of a compound that is named as a salt. Residues, ends and D or L forms follow the SMILES beside them. *: point of attachment. Cbz = O=C(OCc1ccccc1)*
# Assays:
# NF-κB p65 = NF-κB p65 transcription factor ELISA in TNFα-stimulated HCT-116 cells; assay type: cell-based; conditions: Homo sapiens, HCT-116, 4 h, read-out: inhibition of NF-κB p65 signaling
# Protocol: (§1) The Nrf-2 and NF-κB transcription factors in the nuclear extracts were detected using an Nrf-2 Transcription Assay Kit (Cayman Chemical, # 600590) and NF-κB (p65 and p50) Transcription Factor Assay Kit (Cayman Chemical, # 10007889 and # 10006912). Prior to assay performance, the nuclear extracts were generated using a Nuclear Extraction Kit (Cayman Chemical, # 10009277). The assay was performed according to the manufacturer’s instructions. For all kits, the nuclear extracts were incubated overnight at 4°C. Development was carried out for 15–20 min or until the wells turned medium to dark blue. Five minutes after the stop solution had been added, the absorbance was read at 450 nm using a plate reader.
# The proteasome inhibitor MG132 ([Lee and Goldberg, 1998]) was used as a positive control, as proteasomal inhibition leads to stabilization of I-κB and thus inhibits the activation of the NF-κB signaling pathway. We used a MG132 incubation period of 4 h as longer incubations have been described to activate NF-κB signaling ([Lee et al., 2013]).
# FIGURE 1 Effects of NFA on the NF-κB p65 and p50 signaling pathway in colorectal cancer cells. […] Incubation for 4 h with the proteasome inhibitor MG132 (1 µM) served as the positive control. […] Values are normalized to protein concentration and unstimulated vehicle control. Data are represented as mean ± SD of (A) n = 3 (DMSO, 16.9.9, 9NOA control of right panel, 18.4.4, 18.6.7, and 18.9.10), n = 4 (all other derivatives) and (B) n = 5. Statistical significance was calculated by one-way analysis of variance (ANOVA) with Bonferroni post-test. *p ≤ 0.03, **p ≤ 0.0021, ***p ≤ 0.0002, ****p ≤ 0.0001 were considered significant versus TNF-α treatment.
# Nrf-2 = Nrf-2 induction in HCT-116 cells (Western blot and ELISA); assay type: cell-based, human; conditions: 10 µM, 4 h, HCT-116, Western blot and ELISA
# Protocol: as §1
# HCT-116 and A549 cells were washed with 1× PBS, and cell extracts were generated using a Nuclear Extraction Kit (Cayman Chemical, #10009277) according to the manufacturer’s instructions, whereas whole-cell lysates were obtained using SDS lysis buffer (55.5 mM Tris-HCl pH 6.8, 2.2% SDS, 9% glycerol supplemented with protease (cOmplete® Protease Inhibitor Cocktail, Roche, Mannheim, Germany) and phosphatase (PhosStop® Easy Pack, Roche, Mannheim, Germany) inhibitors. Protein concentrations from the nuclear and cytosolic fractions were determined with a bicinchoninic acid (BCA) protein assay kit (Pierce™, Rockford, Illinois, United States). Cytoplasmic and nuclear extracts (100 µg each) and 30 µg whole-cell lysates were diluted in 5× Laemmli loading dye and denatured for 10 min at 95°C, loaded on a 10% SDS polyacrylamide gel, and separated by gel electrophoresis for 15 min at 80 V followed by 60 min at 120 V. The separated proteins were blotted onto a nitrocellulose membrane (Hybond-C Extra, Amersham Biosciences Ltd., UK) using the Mini Trans-Blot® module (Bio-Rad, Hercules, California, United States) for 90 min at 90 V. The membrane was blocked with Odyssey blocking buffer (Li-Cor Biosciences, Bad Homburg, Germany) or 5% milk powder in TBS-T (Tris Buffered Saline with 0.1% Tween) for 1 h at room temperature (RT). The membranes were incubated with the primary antibodies overnight at 4°C, and then with the secondary antibodies for 1 h at RT. The primary antibodies were diluted 1:1,000 and the secondary antibodies were diluted 1:10,000 to 1:20,000. […]
# FIGURE 2 Effects of NFA on Nrf-2 expression in colorectal cancer cells. HCT-116 cells were treated with 10 µM NFA and tBHQ and/or MMF for 4 h, and Nrf-2 levels were analyzed by western blotting and ELISA. […] (B) Nrf-2 expression levels were evaluated with an ELISA after incubation with NFA with different carbon chain lengths and Michael acceptor positions. […]
# HCT-116 cells = experiment: WST-1 cell viability assay, HCT-116; assay type: cell-based, human; conditions: WST-1 cell viability, 24 h, n.i. = no inhibition observed
# Protocol: (§2) Cell viability was analyzed with the WST-1 assay based on the cleavage of the stable tetrazolium salt WST-1 by the mitochondrial reductase system. Cells were seeded in the appropriate densities in a clear 96-well plate and settled overnight at 37°C in 5% CO2. The next day, the cells were treated with NFA or the substances of interest (≤0.1% dimethyl sulfoxide [DMSO]) and incubated for 24 or 48 h at 37°C in 5% CO2. Cell viability was analyzed by adding 10 µl WST-1 solution (Roche, Basel, Switzerland) and subsequently incubating the cells at 37°C for another 30–40 min. Absorbance was measured at 450 nm with a control wavelength at 620 nm using a plate reader.
# (§3) Besides targeting the NF-κB pathway, the anti-tumorigenic effects of NFA can be observed by a reduction of colorectal cancer cell viability. […] Again, the cytotoxic effects of NFA were determined in HCT-116 and HT-29 colorectal cancer cells in the present study. […] HCT-116 cells were treated with increasing concentrations of NFA differing in chain length and Michael acceptor position for 24 h, and cell viability was determined using the WST-1 assay. Due to their prolonged cell division rate and their lack of sensitivity towards NFA ([Kühn et al., 2018]), HT-29 cells were treated for 48 h to gain improved NFA activity.
# HT-29 cells = experiment: WST-1 cell viability assay, HT-29; assay type: cell-based, human; conditions: n.i. = no inhibition observed
# Protocol: as §2, §3
# 5-LO = biological target: T1, 5-LO (Homo sapiens, UniProt P09917); experiment: 5-LO product formation (LTB4, 5-HETE) in intact PMNL, A23187 + 20 µM AA; assay type: cell-based; conditions: 10 µM, A23187 2.5 µM + 20 µM AA (data not shown)
# T1 construct: endogenous in cells; host or cells: human PMNL from buffy coats
# T1 sequence (P09917 1-674): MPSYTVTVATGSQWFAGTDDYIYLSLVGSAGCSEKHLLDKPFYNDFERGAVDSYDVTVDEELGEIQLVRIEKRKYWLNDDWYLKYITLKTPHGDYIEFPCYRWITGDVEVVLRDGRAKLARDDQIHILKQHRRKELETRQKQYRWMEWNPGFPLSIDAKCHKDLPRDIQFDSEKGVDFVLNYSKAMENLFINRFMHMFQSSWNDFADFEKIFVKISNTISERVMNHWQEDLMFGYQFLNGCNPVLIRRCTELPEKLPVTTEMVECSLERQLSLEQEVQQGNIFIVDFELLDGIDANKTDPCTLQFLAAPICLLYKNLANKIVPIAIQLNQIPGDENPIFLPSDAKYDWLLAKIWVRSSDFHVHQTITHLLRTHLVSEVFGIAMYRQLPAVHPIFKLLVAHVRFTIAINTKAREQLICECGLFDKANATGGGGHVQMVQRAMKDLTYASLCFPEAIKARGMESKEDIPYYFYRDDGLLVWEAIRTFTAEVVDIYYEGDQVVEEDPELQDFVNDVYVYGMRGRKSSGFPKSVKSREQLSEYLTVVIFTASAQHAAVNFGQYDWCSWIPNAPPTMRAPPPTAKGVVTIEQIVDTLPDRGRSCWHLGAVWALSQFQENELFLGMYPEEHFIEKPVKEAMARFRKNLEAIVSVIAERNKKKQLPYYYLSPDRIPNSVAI
# Protocol: Buffy coats from different donors of different blood types were commercially obtained from DRK Blutspendedienst Baden-Württemberg Institute Frankfurt. Donors have given their written consent. […] Following separation, the supernatant was transferred very gently to new 50-ml tubes containing lymphocyte separation medium (LSM) and centrifuged for 10 min at 800 ×g at RT with the centrifuge brake turned off. Afterwards, the supernatant was decanted carefully to discard the platelets and monocytes. The PMNL were washed with 1× PBS before the residual erythrocytes were lysed in two cycles: the cell pellet was resuspended with 10 ml H2O and vortexed for 45 s, and lysis was stopped with 40 ml 1 × PBS. After 10-min centrifugation at 200 ×g at RT, the cycle was repeated once. The supernatant was aspirated, the cell pellet resuspended in 5 ml PBS/glucose and initially separated PMNL preparations with different blood types were finally pooled to gain a sufficient number of cells. […] The enzyme was diluted in PBS/EDTA/ATP, transferred into 5-ml glass tubes, and stored on ice. […] The reaction was stopped by placing the glass tubes on ice. The supernatants were transferred to 1.5 ml reaction tubes and stored at −80°C before LC-MS (liquid chromatography and mass spectrometry) analysis of LTB4 and HETEs as described in 2.6 at the Institute of Pharmacology, Goethe University, University Hospital, Germany. The lipid mediators LTB4, hydroxyeicosatetraenoic acids, 5(S)-HETE, 12(S)-HETE, 15(S)-HETE and 20-HETE were analyzed using liquid chromatography tandem-mass spectroscopy (LC-MS/MS). The LC-MS/MS system consisted of a 5500 QTrap mass spectrometer (Sciex, Darmstadt, Germany), operating in negative ESI mode, an Agilent 1200 HPLC system (Agilent, Waldbronn, Germany) and an HTC Pal autosampler (Chromtech, Idstein, Germany). Sample extraction of LTB4 and HETEs were performed using liquid-liquid extraction: 200 µl of the sample were gently mixed with 20 µl of methanol and 20 µl of internal standard solution and extracted twice with 600 µl ethyl acetate. […] Working solutions of all analytes were prepared in methanol containing 0.1% BHT. The calibration standards were prepared by further dilution of the working standards. […] The residues were reconstituted in 50 µl of methanol:water:BHT (50:50:10^−4, v/v/v) prior to injection into the LC-MS/MS system. Chromatographic separation was achieved using a Gemini NX C18 column (150 mm × 2 mm ID, 5 µm, Phenomenex, Aschaffenburg, Germany) with a precolumn of the same material. A linear gradient was employed at a flow rate of 0.5 ml/min and a total run time of 17.5 min. Mobile phases were A water:ammonia (100:0.05, v/v) and B acetonitrile:ammonia (100:0.05, v/v). […] All data were acquired using Analyst software v1.6.2 and quantitation was performed by MultiQuant software v3.0 (both Sciex, Darmstadt, Germany) using the internal standard method (isotope-dilution mass spectrometry). Calibration curves were calculated by linear regression with 1/x.
compound,measurement,setting,value
"CC(C)C[C@@H](C=O)NC(=O)[C@H](CC(C)C)NC(=O)[C@H](CC(C)C)NC(=O)OCc1ccccc1 [MG132, reference compound] (Cbz-Leu-Leu-Leu-aldehyde)",inhibition at 1 µM,NF-κB p65,~90%
"COC(=O)/C=C/C(=O)O [MMF, monomethyl fumarate]",induction of Nrf-2 (protein levels / signaling),Nrf-2,increase
"CC1=CC(=O)C(C(C)C)=CC1=O [TQ, thymoquinone, reference compound]",IC50,"HCT-116 cells; Homo sapiens, HCT-116",4.2 ± 1.2 µM
same,HCT-116 (24 h) IC50,HCT-116 cells,suppressed HCT-116 and HT-29 cell viability effectively
same,IC50,"HT-29 cells; Homo sapiens, HT-29, 48 h",10.3 ± 1.1 µM
same,HT-29 (48 h) IC50,HT-29 cells,suppressed HCT-116 and HT-29 cell viability effectively
"COc1ccc2c(c1)CC[C@@H]1[C@@H]2CC[C@]2(C)[C@@H](NCCCCCCN3C(=O)C=CC3=O)CC[C@@H]12 [U73122, reference compound]",inhibition of 5-LO product formation in PMNL,5-LO,> 90%
"CC(C)(C)c1cc(O)ccc1O [tBHQ, tert-butylhydroquinone]",induction of Nrf-2 (protein levels / signaling),Nrf-2,increase
